From ChEMBL document CHEMBL1124229, “Spiro hydantoin aldose reductase inhibitors” (J Med Chem, 1988) come the findings set out here.

One experiment is filed under the species Rattus norvegicus. Description: Ability to cause 50% reduction in sorbitol levels of sciatic nerve of streptozotocinized rats was determined. The format is functional.
Experiment [1] has as its target T1, Aldo-keto reductase family 1 member B1 (Bos taurus, UniProt P16116). As to the kind of experiment: In vitro inhibition of partially purified calf lens aldose reductase.
The target of experiment [2] is T1, Aldo-keto reductase family 1 member B1. As to the kind of experiment: Inhibition of partially purified calf lens aldose reductase; value ranges from 10E-4 to 10e-5 M.
The mark [3] stands for this setting: Rattus norvegicus, Sciatic nerve, read-out: ED50.

`O=C1NC(=O)C2(CCC(c3ccccc3)c3ccccc32)N1` (stereo not given): in the experiment filed under Rattus norvegicus (setting [3]), the ED50 is more than 25 mg/kg.
In experiment [1], `Cc1cc(C)c2c(c1C)OCCC21NC(=O)NC1=O` (stereo not given) displayed an IC50 of 1 µM.
In the case of `O=C1NC(=O)C2(CCOc3ccc(Oc4ccccc4)cc32)N1` (stereo not given), in the experiment listed under Rattus norvegicus (setting [3]), the ED50 is 25 mg/kg.
For the molecule `Cc1cc(Cl)cc2c1OCCC21NC(=O)NC1=O` (stereo not given), the IC50 in experiment [1] is less than 0.1 µM. Besides, the ED50 in the experiment listed under Rattus norvegicus (setting [3]) was less than 1.5 mg/kg.
In the same order, the values of `O=C1NC(=O)C2(CCOc3cc(Cl)c(Cl)cc32)N1` (stereo not given) are less than 0.1 µM and less than 1.5 mg/kg.
In the same order, the values of `O=C1NC(=O)C2(N1)c1ccccc1CCC2c1ccccc1` (stereo not given) are more than 100 µM and more than 25 mg/kg.
Regarding `O=C1NC(=O)[C@]2(CCOc3ccc(F)cc32)N1`, the ED50 in the experiment listed under Rattus norvegicus (setting [3]) was 25 mg/kg.
For `O=C1CC2(CCc3ccccc32)C(=O)N1` (stereo not given), in experiment [1], the IC50 is more than 100 µM. Further, the 50% effective dose (ED50) in the experiment listed under Rattus norvegicus (setting [3]) is more than 2.5 mg/kg.
In the same order, the values of `COc1ccc2c(c1)C1(CCS2)NC(=O)NC1=O` (stereo not given) are 10 µM and more than 5 mg/kg.
In experiment [1], `O=C(O)C1CCCc2ccccc21` (stereo not given) displayed a half-inhibitory concentration (IC50) of more than 100 µM.
Take `CN(C)S(=O)(=O)c1ccc2c(c1)C1(CCO2)NC(=O)NC1=O` (stereo not given): the half-maximal inhibitory concentration (IC50) in experiment [1] came to 100 µM. The ED50 in the experiment filed under Rattus norvegicus (setting [3]) was more than 5 mg/kg.
In experiment [1], `CC1CCC2(NC(=O)NC2=O)c2ccccc21` (stereo not given) registered an IC50 of 100 µM. In the experiment filed under Rattus norvegicus (setting [3]), the ED50 was more than 25 mg/kg.
Turning to `NC(=O)c1ccc2c(c1)C1(CCO2)NC(=O)NC1=O` (stereo not given), the 50% inhibitory concentration (IC50) in experiment [2] was determined as 100 µM. Moreover, the ED50 in the experiment listed under Rattus norvegicus (setting [3]) was more than 100 mg/kg.
`O=C1NC(=O)C2(CCCc3[nH]ccc32)N1` (stereo not given) showed a half-inhibitory concentration (IC50) in experiment [1] of more than 100 µM. Further, the ED50 in the experiment filed under Rattus norvegicus (setting [3]) is more than 25 mg/kg.
Regarding `CC(C)(C)c1ccc2c(c1)C1(CCO2)NC(=O)NC1=O` (stereo not given), the IC50 in experiment [2] worked out at 100 µM.
As for `O=C1NCC2(CCc3ccccc32)N1` (stereo not given), in experiment [1], the half-inhibitory concentration (IC50) is more than 100 µM.
As to `O=C1CC2(CCCc3ccccc32)CN1` (stereo not given), the IC50 in experiment [1] was more than 100 µM. Moreover, the median effective dose (ED50) in the experiment listed under Rattus norvegicus (setting [3]) is more than 25 mg/kg.
`O=C1NC(=O)C2(CCSc3c(Cl)cc(Cl)cc32)N1` (stereo not given): in experiment [1], the IC50 was less than 0.1 µM.
The molecule `O=C1NC(=O)C2(CCCCc3ccccc32)N1` (stereo not given) displayed an IC50 in experiment [1] of more than 100 µM. Besides, the median effective dose (ED50) in the experiment listed under Rattus norvegicus (setting [3]) is more than 25 mg/kg.
In experiment [1], `O=C(O)C1CCSc2ccccc21` (stereo not given) came in with an IC50 of 100 µM.
`CS(=O)(=O)c1ccc2c(c1)C1(CCO2)NC(=O)NC1=O` (stereo not given) came in with an IC50 in experiment [2] of 100 µM.
As to `COc1ccc2c(c1)CCC21NC(=O)NC1=O` (stereo not given), the IC50 in experiment [1] was determined as 10 µM. Moreover, the ED50 in the experiment listed under Rattus norvegicus (setting [3]) was more than 25 mg/kg.
For `O=C1NC(=O)C2(CCc3ccccc32)O1` (stereo not given), the ED50 in the experiment listed under Rattus norvegicus (setting [3]) is more than 25 mg/kg.
Consider `NC(=O)C1(NC=O)CCc2ccccc21` (stereo not given), for which, in experiment [1], the IC50 was 100 µM. Further, the ED50 in the experiment filed under Rattus norvegicus (setting [3]) is more than 10 mg/kg.
Regarding `O=C1NC(=O)C2(CCC(C(=O)O)c3ccccc32)N1` (stereo not given), the IC50 in experiment [1] is more than 100 µM.
In the case of `O=C1NC(=O)[C@@]2(CCOc3ccc(F)cc32)N1` (stereo in doubt; 32) [SORBINIL], the ED50 in the experiment listed under Rattus norvegicus amounted to 0.75 mg/kg.
On to `O=C(O)C1CCOc2c1cc(Cl)c1ccccc21` (stereo not given), for which, in experiment [1], the IC50 is 1 µM. The ED50 in the experiment listed under Rattus norvegicus (setting [3]) was more than 25 mg/kg.
In the same order, the values of `Cc1cc(C)c2c(c1)C1(CCO2)NC(=O)NC1=O` (stereo not given) are 1 µM and more than 1.5 mg/kg.
On to `O=C(O)C1CCSc2cc(Cl)c(Cl)cc21` (stereo not given), for which the IC50 in experiment [1] amounted to 10 µM.
`COc1ccc(Cl)cc1C1(C)NC(=O)NC1=O` (stereo not given) yielded an IC50 in experiment [1] of more than 100 µM.
`O=C1NC(=O)C2(CCOc3c2ccc2cccnc32)N1` (stereo not given) showed a half-inhibitory concentration (IC50) in experiment [1] of 10 µM. For the same molecule, the ED50 in the experiment listed under Rattus norvegicus (setting [3]) was more than 1.5 mg/kg.
In the same order, the values of `CN1C(=O)N(C)C2(CCCc3ccccc32)C1=O` (stereo not given) are more than 100 µM and 25 mg/kg.
In turn, `COc1cccc2c3c(ccc12)C1(CCO3)NC(=O)NC1=O` (stereo not given) returned an IC50 in experiment [1] of 0.1 µM. Also, the ED50 in the experiment listed under Rattus norvegicus (setting [3]) is more than 1.5 mg/kg.
Turning to `O=C1NC(=O)C2(CCOc3ccc(-c4ccccc4)cc32)N1` (stereo not given), in experiment [1], the 50% inhibitory concentration (IC50) is less than 100 µM. In addition, in the experiment listed under Rattus norvegicus (setting [3]), the ED50 was more than 1.5 mg/kg.
In experiment [1], `O=C1NC(=O)C2(CCSc3c(Cl)ccc(Cl)c32)N1` (stereo not given) yielded an IC50 of more than 100 µM.
`O=C1NC(=O)C2(CCOc3cc(C(F)(F)F)ccc32)N1` (stereo not given): in experiment [1], the IC50 was 1 µM. In addition, in the experiment listed under Rattus norvegicus (setting [3]), the ED50 is 5 mg/kg.
In the same order, the values of `O=CNC(=O)NC1CCc2ccccc21` (stereo not given) are more than 100 µM and more than 10 mg/kg.
Molecule `O=C1NC(=O)C2(CCSc3cc(Cl)c(Cl)cc32)N1` (stereo not given) gave an IC50 in experiment [1] of less than 0.1 µM. Besides, the 50% effective dose (ED50) in the experiment listed under Rattus norvegicus (setting [3]) turned out to be 2.5 mg/kg.
Take `S=C1NC(=S)C2(CCCc3ccccc32)N1` (stereo not given): the 50% inhibitory concentration (IC50) in experiment [1] was more than 100 µM. For the same molecule, the 50% effective dose (ED50) in the experiment filed under Rattus norvegicus (setting [3]) is more than 25 mg/kg.
Molecule `O=C1NC(=O)C(c2ccccc2)(c2ccccc2)N1` [PHENYTOIN] registered an IC50 in experiment [1] of more than 100 µM. Also, the ED50 in the experiment listed under Rattus norvegicus (setting [3]) is more than 250 mg/kg.
In the case of `CSc1ccc2c(c1)C1(CCO2)NC(=O)NC1=O` (stereo not given), the IC50 in experiment [1] is 1 µM. The ED50 in the experiment filed under Rattus norvegicus (setting [3]) was less than 25 mg/kg.
With `O=C1CCC2(CCCc3ccccc32)C(=O)N1` (stereo not given), the IC50 in experiment [1] is more than 100 µM. Besides, the ED50 in the experiment filed under Rattus norvegicus (setting [3]) was more than 25 mg/kg.
As for `O=C1NC(=O)C2(CCCCC2)N1`, the concentration for half-maximal inhibition (IC50) in experiment [1] stood at 100 µM. Also, the ED50 in the experiment listed under Rattus norvegicus (setting [3]) was more than 25 mg/kg.
For the molecule `CC(C)(C)c1ccc2c(c1)C1(CCS2)NC(=O)NC1=O` (stereo not given), 100 µM corresponded to half-maximal inhibition in experiment [2] (IC50).
For `O=C1NC(=O)C2(CCOc3c(Cl)cccc32)N1` (stereo not given), the IC50 in experiment [1] stood at 1 µM. For the same molecule, in the experiment filed under Rattus norvegicus (setting [3]), the ED50 is more than 1.5 mg/kg.
Take `O=C1CC2(CCOc3ccc(Cl)cc32)C(=O)N1` (stereo not given): the IC50 in experiment [1] was less than 100 µM. Also, in the experiment listed under Rattus norvegicus (setting [3]), the ED50 was more than 5 mg/kg.
